# Experimental data published in patent US6121284A, “2,3-bridged 1,4-dihydropyridines, and their use as medicaments” (Bayer Aktiengesellschaft, priority 1994, dated 2000).
# System: C6-BU1-glioma cells
# Assay: 86Rubidium efflux from C6-BU1-glioma cells
# Type: cell-based
# Settings: Rattus norvegicus, C6-BU-1; 1 μM test substance applied; increase in 86Rb efflux above basal efflux caused by ionomycin set at 100%; read-out: residual efflux
# Description: ^86 Rubidium Efflux from C6-BU1-glioma cells
# The experiments were carried out in accordance with the method described by Tas et al. (Neurosci. Lett. 94, 279-284, (1988)), with slight changes. The increase in efflux above the basal efflux caused by ionomycin is calculated from the data and set at 100%. The stimulations in the presence of test substances are then based on this value.
row,Structure (SMILES),activity at 1 µM [%]
1,"COC(=O)C1=C(C)N(C)C2=C(C(=O)OC2)C1c1cccc(F)c1F (stereo not drawn) [Example 11, Methyl 1,4,5,7-tetrahydro-4-(2,3-difluorophenyl)-1,2-dimethyl-5-oxo-furo-[3,4b]-pyridine-3-carboxylate]",73
2,"CC1=C(C(=O)OC(C)C)C(c2cccc(Cl)c2Cl)C2=C(CCCC2=O)N1C (stereo not drawn) [Example 1, Isopropyl 4-(2,3-dichlorophenyl)-1,2-dimethyl-5-oxo-1,4,5,7,8-hexahydroquinoline-3-carboxylate]",38
3,"COC(=O)C1=C(C)N(C)C2=C(C(=O)OC2)C1c1ccc(Cl)cc1 (stereo not drawn) [Example 8, Methyl1,4,5,7-tetrahydro-4-(4-chlorophenyl)-1,2-dimethyl-7-oxo-furo-[3,4b]-pyridine-3-carboxylate]",53
